Experimental data reported in article PMC9814400 (Communications Chemistry, 2022).
Where two headings read alike, the source gives them in different places.

Experiments:
p97-ND1 [1] = target: T1, p97-ND1 (Homo sapiens, UniProt P55072); assay: STD-NMR with p97-ND1 in the presence of 500 µM ADP; type: binding; set-up: key to mean STD-effect (ND1) / maximum STD-effect (ND1): STD effect = Idiff/Ioff × 100 (%); conditions: for maximum STD-effect (ND1) / mean STD-effect (ND1): Supplementary Table 3; for STD (maximum STD signal measured with p97-ND1): aromatic resonances, 428 µM fragment, 30 µM protein, 500 µM ADP
T1 construct: His6 (TEV protease-cleavable) (N); made in house
T1 sequence (P55072 2-481): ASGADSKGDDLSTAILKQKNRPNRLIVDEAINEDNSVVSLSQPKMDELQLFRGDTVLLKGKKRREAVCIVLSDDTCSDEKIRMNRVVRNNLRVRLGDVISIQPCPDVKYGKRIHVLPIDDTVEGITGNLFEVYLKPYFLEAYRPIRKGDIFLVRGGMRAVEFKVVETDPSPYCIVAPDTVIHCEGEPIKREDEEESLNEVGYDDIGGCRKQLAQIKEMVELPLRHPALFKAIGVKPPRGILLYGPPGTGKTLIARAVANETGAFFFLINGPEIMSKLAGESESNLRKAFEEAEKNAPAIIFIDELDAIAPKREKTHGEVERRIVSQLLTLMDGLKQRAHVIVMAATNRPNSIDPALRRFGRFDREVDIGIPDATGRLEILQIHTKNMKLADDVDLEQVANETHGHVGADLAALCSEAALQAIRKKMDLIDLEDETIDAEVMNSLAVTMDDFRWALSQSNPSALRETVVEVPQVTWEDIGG
Description: The NMR measurements were carried out with the biologically more relevant p97-ND1 construct in the presence of 500 µM ADP to block the nucleotide binding site. The STD effect was calculated by dividing the intensity of the difference spectrum by the intensity of the off-spectrum (Idiff/ Ioff × 100) for each signal. For further analysis only resonances in the aromatic region of the ^1H NMR spectrum of the individual ligand were considered. A mean STD effect of each fragment interacting with p97-ND1 was calculated using the sum of the individual STD effects divided by the number of signals considered. Furthermore, the maximum STD effect of each compound was determined. […] Similar results were obtained in the previously reported fragment screen with p97[26]. An overview of the STD effects is shown in Supplementary Fig. 4.
All Saturation-Transfer-Difference (STD)[32] measurements were performed on a Bruker Avance III 400 MHz spectrometer (Karlsruhe, Germany) operating at 400.13 MHz with a PABBI 1H/D-BB Z-GRD inverse probe at 300 K adjusted with a BSVT (Bruker) temperature control unit. Temperature calibration was carried out with 99.8% CD3OD (282–330 K). The stddiffesgp.3 pulse program from the Bruker pulseprogram library was used for data acquisition. The suppression of the HDO signal (4.703 ppm) was achieved by the excitation sculpting method. The saturation frequency for the on- and off-resonances was set to −400 Hz and −16,000 Hz, respectively. The saturation time was 3 s with a relaxation delay D1 of 4 s.
The protein stock solutions were transferred to a deuterated buffer containing 35 mM potassium phosphate and 25 mM NaCl in D2O at a pD of 7.5 using 0.5 mL Centricon devices (Merck Millipore) with a MWCO of 30 kDa by washing and centrifuging several times at 10,000 × g and 4 °C. Buffer-exchanged protein was adjusted to a concentration of 30 µM with NMR buffer. The respective fragment concentration was 428 µM with a final DMSO-d6 fraction of 5% (v/v). All measurements were performed in the presence of 500 µM ADP (in case of the ND1 domain) and 5 mM MgCl2. All data were analyzed using TopSpin 4.0.8 (Bruker Corporation, Billerica, MA, USA).

p97-N = target: T2, p97-N (Homo sapiens, UniProt P55072); assay: BLI dose-response binding to the isolated N-domain of p97; conditions: for Kd: BLI steady state, 1:1 Langmuir model, errors from the fitting model; for LLEAT: based on KD for p97-N, heavy atom count and clogP; for ScoreBLI: based on sensorgrams from measurements with p97-N, about 1.0 or above = 1:1 binder; for LE: ligand efficiency based on KD for p97-N
T2 construct: Constructs of p97-N (aa 21-199, N-terminal 3 C protease-cleavable His6-tag); His6 (3C protease-cleavable) (N); made in house
T2 sequence (P55072 21-199): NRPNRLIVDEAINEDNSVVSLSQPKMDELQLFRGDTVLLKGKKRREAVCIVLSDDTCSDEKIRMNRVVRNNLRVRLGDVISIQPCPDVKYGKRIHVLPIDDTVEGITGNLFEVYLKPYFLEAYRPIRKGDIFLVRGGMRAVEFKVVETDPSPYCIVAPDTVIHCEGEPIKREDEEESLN
Description: The selected 42 fragments of the screen with the N-domain were tested in a dose-dependent manner using concentrations from 1000.0 µM to 31.3 µM in 1:1 dilution steps. […] The sensorgrams of these fragments were fitted with a 1:1 Langmuir model to estimate their affinities and analyzed with respect to the following parameters: (i) The presence of a stationary phase; (ii) curve shapes according to either a homogeneous (1:1) or a heterogeneous (2:1) binding model, and (iii) justification of a 1:1 binding model via the obtained empirical constants kobs of the association phase. Based on these analyses, a ScoreBLI was calculated (for details see Supplementary Methods in the Supporting Information). The calculated ScoreBLI should be close to or above 1.0 for ligands that can be described with a 1:1 model, whereas ligands showing unspecific binding yield values << 1.0. Based on the ScoreBLI, we divided the fragments into a low-scoring (<0.70) and a high-scoring (≥0.70) group.
(§1) Protein constructs for BLI measurements were enzymatically biotinylated using BirA[28]. Biotinylated p97 was loaded on Super Streptavidin Biosensors (SSA) obtained from Sartorius as follows. SSA-sensors were equilibrated in PBS-buffer, loaded with a protein solution containing 50 µg/mL (p97-ND1) or 100 µg/mL (p97-N) protein, blocked with biocytin and washed in PBS buffer. Reference SSA-sensors were set up by blocking them with a 10 µg/mL biocytin solution for 5 min[27]. The SSA-sensors were loaded to a shift of up to 7 nm with p97-ND1 and 10 nm with p97-N, respectively.
(§2) Screening plates were prepared by adding 10 µL of a 10 mM DMSO stock solution of library compound to 190 µL of PBS buffer (containing 0.05% TWEEN 20, 1 mM DTT and 5 mM MgCl2 [only for p97-ND1]) in 96 well plates (Greiner). The final DMSO concentration was 5% (v/v). All BLI measurements were performed on an Octet RED96e (Sartorius) device.
(§3) Selected fragments of the initial screenings were confirmed by dose-response-titrations using six concentrations ranging from 1000 to 31.3 µM in a 1:1 dilution series. Every concentration was measured twice. The assay settings were as follows: baseline measurement 15 s; association time 120 s and dissociation time 180 s. The double referenced data were further analyzed in Origin Pro to estimate the affinity by fitting the signals of the steady states to a 1:1 Langmuir model. For the fitting all measured data points (n = 2) were considered.
Definition of the quality score “ScoreBLI”
For selecting fragments for further analysis, the ScoreBLI was def ined as : […]
SSSSSSSSSSBBBBBB = rrmmmmmmmm 1:1rrmmmmmmmm 2:12 SSkkkkkkkk rmean 1:12 is the mean of the r2 coefficients of t he r egr es s ions of all association phases measured f or a given f ragment. The data were f itted with a 1:1 binding model:
RRPP = RRPPee ?1 − SS −(kkkkkkkk PP ) ? with RRPP the shift at the time t, k obs the empirical rate constant and RRPPee the shift at equilibrium.
In analogy, the rmean 2:12 was def ined by f itting with a 2:1 binding model:
RRPP = RRPPee 1 ?1 − SS −(kkkkkkkk1 PP) ? + RRPPee 2 ?1 − SS −(kkkkkkkk2 PP) ? A ligand f ollowing a 1:1 model would result in a good rmean2 f or both functions, whereas f or a lig and which is better described with a 2:1 model the rmean2 f or a 1:1 model would decrease, resulting in an overall decreased value.
In case of a 1:1 model the empirical rate constant k obs is proportional to the concentration of […]
kkkkkkkk = kkPP [LL ] + kkdd with ka t he association rate constant and kd t he dissociation rate constant. Theref ore, all observed empirical rate constants of a ligand were subjected to a linear regression model, which yielded the value r kobs2 .
A Langmuir model was used to es t im at e the affinities of the fragments. The use of this model requires that a chemical equilibrium is reached. To analyze whether this condition was met, the responses of the last 10 seconds of each association phase were f itted with a linear model. […]

p97-ND1 [2] = target: T1, p97-ND1; assay: BLI dose-response binding to the p97-ND1 construct
Source text: As starting point for the initial screen, a BLI binding assay was developed with a p97-ND1 construct (amino acids 2-481) to allow validation with adenosine diphosphate (ADP) as a positive control. The p97-ND1 construct was enzymatically biotinylated via an Avi-Tag and Escherichia coli biotin ligase[28] and loaded to high response (>5 nm) on Super Streptavidin Biosensors (SSA), yielding a homogeneous sensor surface. […] The kinetic analysis of the sensorgrams indicated a clear 1:1 binding model for ADP. […] Another surprising result were the high responses upon ADP-binding with shifts over 0.7 nm. These high values indicate that the BLI signal is not only dependent on the molar weight as in SPR but may also reflect conformational changes induced in p97 upon ADP binding.
For 12 fragments, a dose-dependent binding was observed and a 1:1 Langmuir model could be applied to obtain the respective KD value. The determined KD^(p97-ND1) values mostly agreed well with those previously determined for the respective fragments with the isolated N-domain. […] TROLL1 and VIK40 were therefore not considered further.
as §1, §2, §3

p97 ND1 fragment = conditions: read-out: reported affinity of ADP, cited from earlier work
N-domain of p97 = target: T3, N-domain of p97 (Homo sapiens, UniProt P55072); assay: STD-NMR build-up measurements with the isolated N-domain; type: binding
T3 construct: additional STD measurements with the isolated N-domain were carried out; made in house
T3 sequence (P55072 21-199 limits assumed): as the sequence (P55072 21-199) above
Description: To obtain additional information about the putative binding mode of the selected fragments, full STD-NMR build-up curves were measured for the fragments TROLL2, TROLL7, TROLL8 and TROLL12 and the initial rates of STD build-up (STD0) were calculated. […] As expected, the saturation effects were higher for the ND1 construct compared to the isolated N-domain due to the stronger nuclear Overhauser effect (NOE) of the much larger protein. Because of water suppression, not all hydrogens of the selected fragments were experimentally accessible. For the remaining hydrogen atoms, different STD0 values were determined, indicating a defined orientation of the fragments upon binding to p97 (Supplementary Fig. 7). For TROLL2, TROLL7 and TROLL12 a clear dominance in the saturation of the protons at the hydrophobic aromatic parts of the molecules was visible.
For binding epitope mapping of selected fragments, the initial growth rates approach was used as described. For determination of the initial rate of STD build up (STD0) the STD intensities for seven saturation times (0.5, 0.75, 1.0, 1.5, 2.0, 3.0, 5.0 s) were measured for the ND1 as well as for the isolated N-domain and fitted by an exponential equation using R. The recycle delay (d1) was set to 5 s. For each fragment also a negative control without protein was measured with a saturation time of 5.0 s. Theoretical STD0 values on the basis of the obtained X-ray crystal structure as well as for representative mixed-solvent MD poses were calculated using the Complete Relaxation and Conformational Exchange Matrix Analysis of Saturation Transfer (CORCEMA-ST) software version 3.8[72] and ShiftX version 1.1[73]. Predicted and experimental STD-data were evaluated using the NOE R-factor (see Supplementary Methods in the Supporting Information).

[3] = BLI steady state, 1:1 Langmuir model, errors from the fitting model, read-out: KD p97-ND1

Row | maximum STD-effect (ND1) (p97-ND1 [1]) | mean STD-effect (ND1) (p97-ND1 [1]) | STD (maximum STD signal measured with p97-ND1) (p97-ND1 [1]) [%] | Kd (p97-N) [µM] | LLEAT (p97-N) | ScoreBLI (p97-N) | LE (p97-N) | Kd (p97-ND1 [2]; [3]) [µM] | Compound | Kd (p97-ND1 [2]; Langmuir model, steady state measurements of a dilution series, read-out: KD of ADP to p97-ND1 (steady state)) [µM] | Kd (p97-ND1 [2]; global exponential regression, 1:1 binding model, read-out: affinity of ADP to p97-ND1 (kinetic analysis)) [µM] | ScoreBLI (p97-ND1 [2]; score evaluated with binding data for ADP) | Kd (p97 ND1 fragment; ND1 fragment spanning amino acids 1-458) [µM] | Kd (p97 ND1 fragment; ND1 fragment spanning amino acids 1-480) [µM] | binding to the N-domain by STD-NMR (N-domain of p97)
1 | 18.3 | 18.3 | 18.3 | 147 ± 32 | 0.27 | 0.94 | 0.30 | 192 ± 92 | Nc1nc2c(s1)CN(Cc1ccccc1)CC2 [VIK20] | – | – | – | – | – | –
2 | 57.4 | 54.3 | 57.4 | 625 ± 89 | 0.27 | 0.89 | 0.33 | 445 ± 223 | Nc1[nH]ncc1-c1ccc(Cl)cc1 [TROLL18] | – | – | – | – | – | –
3 | 67.4 | 55.4 | 67.4 | 409 ± 61 | 0.16 | 0.93 | 0.27 | 290 ± 33 | Cc1ccc(-c2csc3nc(CO)cn23)cc1 [TROLL14] | – | – | – | – | – | –
4 | 47.9 | 44.5 | 47.9 | 354 ± 17 | 0.34 | 0.84 | 0.33 | – | Cc1oc(CN)nc1-c1ccccc1 [TROLL12] | – | – | – | – | – | confirmed the binding
5 | 41.0 | 33.1 | 41.0 | 245 ± 43 | 0.40 | 0.91 | 0.41 | 598 ± 214 | Cc1ccc(-c2cc(N)n[nH]2)o1 [TROLL8] | – | – | – | – | – | confirmed the binding

Continued, molecule first:

Row | Compound | maximum STD-effect (ND1) (p97-ND1 [1]) | mean STD-effect (ND1) (p97-ND1 [1]) | STD (maximum STD signal measured with p97-ND1) (p97-ND1 [1]) [%] | Kd (p97-N) [µM] | LLEAT (p97-N) | ScoreBLI (p97-N) | LE (p97-N) | Kd (p97-ND1 [2]; [3]) [µM] | Kd (p97-ND1 [2]; Langmuir model, steady state measurements of a dilution series, read-out: KD of ADP to p97-ND1 (steady state)) [µM] | Kd (p97-ND1 [2]; global exponential regression, 1:1 binding model, read-out: affinity of ADP to p97-ND1 (kinetic analysis)) [µM] | ScoreBLI (p97-ND1 [2]; score evaluated with binding data for ADP) | Kd (p97 ND1 fragment; ND1 fragment spanning amino acids 1-458) [µM] | Kd (p97 ND1 fragment; ND1 fragment spanning amino acids 1-480) [µM] | binding to the N-domain by STD-NMR (N-domain of p97)
6 | Nc1ncnc2c1ncn2[C@@H]1O[C@H](COP(=O)(O)OP(=O)(O)O)[C@@H](O)[C@H]1O [ADP, adenosine diphosphate, reference compound] | – | – | – | – | – | – | – | – | 0.2 ± 0.014 | 0.239 ± 0.009 | 1.02 | 0.2 | 0.098 | –
7 | O=C(O)Cc1cc2ccccc2[nH]1 [TROLL6] | 72.5 | 66.5 | 72.5 | 160 ± 22 | 0.30 | 0.75 | 0.39 | 243 ± 16 | – | – | – | – | – | –
8 | NCC(O)c1ccc(Cl)cc1 (stereo not shown) [TROLL7] | 37.3 | 34.5 | 37.3 | – | 0.42 | 0.91 | 0.45 | – | – | – | – | – | – | confirmed the binding
9 | NCC(O)c1ccc(Br)cc1 (stereo not shown) [TROLL2] | 37.7 | 36.0 | 37.7 | 56 ± 46 | 0.47 | 0.83 | 0.52 | 321 ± 67 | – | – | – | – | – | confirmed the binding
